# Target: T1, human OX2R (Homo sapiens, UniProt O43614)
# T1 construct: expressed in transfected cells; host or cells: CHO (Chinese hamster ovary) cells, grown under G418 selection
# T1 sequence (O43614 1-444): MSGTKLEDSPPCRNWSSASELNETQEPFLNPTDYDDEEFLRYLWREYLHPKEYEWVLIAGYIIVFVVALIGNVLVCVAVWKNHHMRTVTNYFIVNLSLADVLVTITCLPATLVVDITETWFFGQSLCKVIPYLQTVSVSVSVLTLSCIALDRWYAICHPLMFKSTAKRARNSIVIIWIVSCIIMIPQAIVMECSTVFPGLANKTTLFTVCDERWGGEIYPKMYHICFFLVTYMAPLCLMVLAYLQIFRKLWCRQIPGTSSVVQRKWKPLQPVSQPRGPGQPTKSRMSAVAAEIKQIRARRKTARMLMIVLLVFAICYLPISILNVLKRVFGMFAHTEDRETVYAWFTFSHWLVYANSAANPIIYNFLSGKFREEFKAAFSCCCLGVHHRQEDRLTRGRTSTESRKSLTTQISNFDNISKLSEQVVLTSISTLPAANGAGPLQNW
# Experiment: IP-One (IPOne) orexin receptor agonist assay in CHO cells expressing human OX2R
# Type: cell-based
# Settings: for EC50: CHO cells expressing human OX2R, IP-One IP-1 detection, 2 hours incubation, four parameter logistic fit, read-out: OX2R Potency, EC50; for % of reference agonist maximal effect: human OX2R, percentage of sample raw value/mean max effect (reference compound at 1 uM with 100% activity)
# Excerpt: The utility of the compounds in accordance with the present invention as orexin receptor OX1R and/or OX2R agonists may be readily determined without undue experimentation by methodology well known in the art. Both the OX1R and/or OX2R G-coupled protein receptors (GPCRs) couple through the Gαq signaling pathway, which ultimately promotes calcium mobilization via inositol triphosphate (IP3) production. The half-life of IP-3 is relatively short, being rapidly metabolized to inositol monophosphate (IP-1), which can be readily detected using a commercially available assay kit (IP-One; Cisbio; cat #621PAPEC) coupled with a cell line expressing the target receptor(s) of interest. The utility of the compounds in accordance with the present invention as orexin receptor OX1R and/or OX2R agonists may be determined utilizing this assay.
# In a typical experiment, the OX1 and OX2 receptor agonist activity is determined in accordance with the following general experimental method. Chinese hamster ovary (CHO) cells expressing human OX1R and/or the human OX2R were grown in Iscove's modified DMEM containing glutaMAX™, 1% G418, 100 U/mL penicillin, 100 μg/mL streptomycin and 10% heat-inactivated qualified fetal bovine serum (FBS). The OX2R cells were seeded at 10,000 cells/well/50 μL and the OX1R cells were seeded at 20,000 cells/well/50 μL into 384-well white tissue culture plates (Greiner; cat #781080). All cell/media reagents were from GIBCO-Invitrogen Corp. The seeded cell plate(s) were incubated at 37° C. with 5% CO2 and 85% humidity for 20-24 hours. On the day of the assay, assay-ready compound plates were prepared using an acoustic liquid handler (ECHO; Labcyte), which dispensed sufficient volume of test compound stock (10 mM in DMSO) or 100% DMSO to prepare 10 point, ½-log dilutions in a final volume of 202.5 nL/well in all test wells of a 384-well diamond plate (Labcyte). Following completion of assay-ready plates, importantly, the next three steps were performed with minimal delay: 1) 20 μl of 1× stimulation buffer was added to the compound plate using a Multidrop Combi (small cassette, Thermo Fisher Scientific cat #24073290); 2) culture medium was removed from the cell plate using the Bluewasher plate washer (gentle spin; BlueCatBio); 3) 14 μl of compound/stimulation buffer mixture was added to the cell plate using a Bravo liquid handler (Agilent) prior to incubating cell plates at 37° C. with 5% CO2 and 85% humidity for 1 or 2 hours (OX1R and OX2R, respectively). During this incubation, IP-one detection reagents were prepared (38:1:1 lysis buffer:D2:AB-cryptate reagents). Six μL of mixed detection reagents were added to the cell plate using a Multidrop Combi (small cassette, Thermo Fisher Scientific cat #24073290) and incubated 60 minutes at room temperature in the dark. Fluorescence signal was detected using an Envision plate reader (Perkin Elmer) [LANCE/DELFIA Dual Enh (Em: APC 665; Ex: Cy5 620)].
# For each compound, data were fit to a four parameter logistic fit (ActivityBase software) and the EC50 was reported as the inflection point of the resulting curve. Percent effect for each test compound was determined as the percentage of sample raw value/mean max effect, where the mean max effect was derived from the mean raw value of 32 control wells per assay plate (using Orexin A (cat #003-30) at 1 μM for human OX1R and a reference compound at 1 uM with 100% activity previously established by comparison to Orexin A for human OX2R). The intrinsic orexin receptor agonist activity of a compound which may be used in the present invention may be determined by these assays.
SMILES,EC50 [µM],% of reference agonist maximal effect [%]
"COC(=O)N1CCC[C@@H](c2n[nH]cc2C(F)F)[C@H]1CO[C@H]1CC[C@@H](c2ccccc2)CC1 [Example 56, Methyl (2S,3R)-3-(4-(difluoromethyl)-pH-pyrazol-3-yl)-2-((((CIS)-4-phenylcyclohexyl)oxy)methyl) piperidine-1-carboxylate]",3.07,66.9
"Cc1cnc(COC(=O)N2CCC[C@H](c3cc[nH]n3)[C@@H]2CO[C@H]2CC[C@@H](c3ccccc3)CC2)o1 (relative stereo) [Example 109, (5-methyloxazol-2-yl)methyl (CIS)-2-((((CIS)-4-phenylcyclohexyl)oxy)methyl)-3-(1H-pyrazol-3-yl)piperidine-1-carboxylate]",5.56,78.6
"CC(C)[C@H]1CC[C@@H](OC[C@H]2[C@@H](c3cc[nH]n3)CCCN2C(=O)C2CC2)CC1 (relative stereo) [Example 75, cyclopropyl((CIS)-2-((((CIS)-4-isopropylcyclohexyl)oxy)methyl)-3-(1H-pyrazol-3-yl)piperidin-1-yl)methanone]",3.63,95.7
"CCC[C@](C)(F)C(=O)N1CCC[C@H](c2cc[nH]n2)[C@@H]1COC1CCC(C(C)C)CC1 (stereo partly drawn) [Example 89, (S)-2-fluoro-1-((CIS)-2-((((CIS)-4-isopropylcyclohexyl)oxy)methyl)-3-(1H-pyrazol-3-yl)piperidin-1-yl)-2-methylpentan-1-one]",9.77,55.8
"COC(=O)N1CCCC(c2nc(O)sc2Cl)C1COC1CCC(c2ccccc2)CC1 (single isomer, unassigned) [Example 68, Methyl 3-(5-chloro-2-hydroxythiazol-4-yl)-2-(((4-phenylcyclohexyl)oxy)methyl)piperidine-1-carboxylate]",6.98,27.6
"CC(C)[C@H]1CC[C@@H](OC[C@H]2[C@@H](c3cc[nH]n3)CCCN2C(=O)NC2CCCCC2)CC1 (relative stereo) [Example 124, (CIS)-N-cyclohexyl-2-((((CIS)-4-isopropylcyclohexyl)oxy)methyl)-3-(1H-pyrazol-3-yl)piperidine-1-carboxamide]",8.2,92.3
"CC[C@@H](C)NC(=O)N1CCC[C@H](c2cc[nH]n2)[C@@H]1CO[C@H]1CC[C@@H](c2ccccc2)CC1 [Example 128, (CIS)-N-((R)-sec-butyl)-2-((((CIS)-4-phenylcyclohexyl)oxy)methyl)-3-(1H-pyrazol-3-yl)piperidine-1-carboxamide]",5.94,69.6
"CCNC(=O)N1CCC[C@@H](c2n[nH]cc2C)[C@H]1CO[C@H]1CC[C@@H](c2cccc(F)c2)CC1 (single isomer, unassigned) [Example 12]",0.414,100.0
COC(=O)N1CCC[C@H](c2n[nH]cc2CO)[C@@H]1CO[C@H]1CC[C@@H](c2ccccc2)CC1 [Example 53],0.104,100.5
COC(=O)N1CCC[C@@H](c2csc(O)n2)[C@H]1CO[C@H]1CC[C@@H](c2ccccc2)CC1 (relative stereo) [Example 65],0.174,98.1
"COC(=O)N1CCC[C@H](c2n[nH]cc2I)[C@@H]1CO[C@H]1CC[C@@H](c2ccccc2)CC1 (relative stereo) [Example 42, Methyl cis-3-(4-iodo-1H-pyrazol-3-yl)-2-((((CIS)-4-phenylcyclohexyl)oxy)methyl)piperidine-1-carboxylate]",0.0412,100.8
"C[C@@H]1C[C@H]1C(=O)N1CCC[C@H](c2cc[nH]n2)[C@@H]1CO[C@H]1CC[C@@H](c2ccccc2)CC1 (relative stereo) [Example 70, ((TRANS)-2-methylcyclopropyl)((CIS)-2-((((CIS)-4-phenylcyclohexyl)oxy)methyl)-3-(1H-pyrazol-3-yl)piperidin-1-yl)methanone]",0.292,100.0

# Reference: patent publication US12552767B2, “3-heteroaryl pyrrolidine and piperidine orexin receptor agonists” (Merck Sharp & Dohme LLC, priority 2020, dated 2026)
